Here are results for 41 molecules from patent publication US20220298141A1, “ENZYME INHIBITORS” (KALVISTA PHARMACEUTICALS LIMITED, priority 2019, published 2022).

Each structure is given as a SMILES string. Where only a bound is given, the exact number is not on record here.

One may read the IC50 as the point on the concentration scale where inhibition reaches its midpoint.

One assay deals with T1, Human Factor XIIa (Homo sapiens, UniProt P00748).
T1 construct: purchased Enzyme Research Laboratories
T1 sequence (P00748 373-615 limits assumed): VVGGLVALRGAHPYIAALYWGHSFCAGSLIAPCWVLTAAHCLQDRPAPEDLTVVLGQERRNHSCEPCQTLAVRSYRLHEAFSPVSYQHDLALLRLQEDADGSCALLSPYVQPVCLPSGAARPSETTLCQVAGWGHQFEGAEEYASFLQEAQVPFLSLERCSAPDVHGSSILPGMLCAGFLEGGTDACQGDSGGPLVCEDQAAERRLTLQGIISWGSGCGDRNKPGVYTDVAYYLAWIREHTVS
T1 sequence (P00748 20-372 partner limits assumed): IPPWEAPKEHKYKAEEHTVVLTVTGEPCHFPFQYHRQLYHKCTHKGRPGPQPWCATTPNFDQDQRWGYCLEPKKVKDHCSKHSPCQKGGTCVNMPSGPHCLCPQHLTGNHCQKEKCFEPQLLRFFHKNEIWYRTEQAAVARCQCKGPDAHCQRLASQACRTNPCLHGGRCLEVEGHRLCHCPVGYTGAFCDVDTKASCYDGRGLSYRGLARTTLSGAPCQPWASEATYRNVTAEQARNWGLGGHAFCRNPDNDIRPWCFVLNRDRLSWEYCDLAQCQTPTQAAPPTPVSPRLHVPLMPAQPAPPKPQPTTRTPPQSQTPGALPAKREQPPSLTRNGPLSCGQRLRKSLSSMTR
The experiment in a line: Determination of Factor XIIa inhibitory activity in vitro (fluorogenic substrate H-DPro-Phe-Arg-AFC). The settings on record: Human Factor XIIa (Enzyme Research Laboratories), 25° C., read-out: Human FXIIa IC50. It counts as biochemical. In short, it runs like this:
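In vitro inhibition of human Factor XIIa (sourced from Enzyme Research Laboratories) was measured by incubating the enzyme at 25° C. with the fluorogenic substrate H-DPro-Phe-Arg-AFC across a range of test compound concentrations. The initial reaction rate, taken as residual enzyme activity, was followed by the […], and IC50 values were calculated.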

The target in a further assay is T2, Human FXIa (Homo sapiens, UniProt P03951).
T2 construct: purchased Enzyme Research Laboratories
The experiment in a line: Determination of FXIa inhibitory activity in vitro (fluorogenic substrate Z-Gly-Pro-Arg-AFC). The class given is biochemical. The settings on record: Selectivity, Human FXIa (Enzyme Research Laboratories), 25° C.

T2 sequence (P03951 388-625 limits assumed): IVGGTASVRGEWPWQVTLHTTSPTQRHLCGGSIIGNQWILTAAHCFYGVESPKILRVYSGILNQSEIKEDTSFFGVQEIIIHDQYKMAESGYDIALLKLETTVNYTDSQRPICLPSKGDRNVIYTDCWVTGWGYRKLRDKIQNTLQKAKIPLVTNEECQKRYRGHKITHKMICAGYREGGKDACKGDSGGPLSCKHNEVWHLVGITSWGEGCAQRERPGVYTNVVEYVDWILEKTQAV
T2 sequence (P03951 19-387 partner limits assumed): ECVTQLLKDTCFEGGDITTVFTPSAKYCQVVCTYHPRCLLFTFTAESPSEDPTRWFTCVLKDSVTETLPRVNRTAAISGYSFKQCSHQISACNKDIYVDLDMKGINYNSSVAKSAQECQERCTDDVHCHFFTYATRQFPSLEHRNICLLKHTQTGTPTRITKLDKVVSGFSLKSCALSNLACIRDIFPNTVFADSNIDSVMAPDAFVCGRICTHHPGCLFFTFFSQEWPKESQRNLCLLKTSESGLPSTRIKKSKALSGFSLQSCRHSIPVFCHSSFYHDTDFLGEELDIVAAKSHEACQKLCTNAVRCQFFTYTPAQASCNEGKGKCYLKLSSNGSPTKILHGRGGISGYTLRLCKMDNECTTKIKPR

As for `Nc1nccc2cc(CNC(=O)c3cc(Cl)cnc3NCC(=O)N3CCOCC3)ccc12` [Example 1.45], the IC50 on Human Factor XIIa is 10 to 40 µM; against Human FXIa it was above 40 µM.

As to `Nc1nccc2cc(CNC(=O)c3cc(Cl)cnc3NCC(=O)NC3CCCC3)ccc12` [Example 1.46], the IC50 on Human Factor XIIa was 10 to 40 µM; against Human FXIa, above 40 µM.

`CN1C(C)(C)CC(Nc2ncc(Cl)cc2C(=O)NCc2ccc3c(N)nccc3c2)CC1(C)C` [Example 1.47]: the IC50 at Human Factor XIIa was 1 to 3 µM; against Human FXIa, above 40 µM.

On to `CN1CCN(c2cc(CNc3ncc(Cl)cc3C(=O)NCc3ccc4c(N)nccc4c3)ccn2)CC1` [Example 1.48], for which the IC50 at Human Factor XIIa is 1 to 3 µM; at Human FXIa, above 40 µM.

For `CC(C)N1CCC(CNc2ncc(Cl)cc2C(=O)NCc2ccc3c(N)nccc3c2)CC1` [Example 1.49], the IC50 at Human Factor XIIa is 0.3 to 1 µM; against Human FXIa it was above 40 µM.

In the case of `Nc1nccc2cc(CNC(=O)c3cc(Cl)cnc3NCC3CCN(C4CC4)CC3)ccc12` [Example 1.50, N-((1-aminoisoquinolin-6-yl)methyl)-5-chloro-2-(((1-cyclopropylpiperidin-4-yl)methyl)amino)nicotinamide], the concentration for half-maximal inhibition (IC50) on Human Factor XIIa was 0.3 to 1 µM; against Human FXIa, above 40 µM.

Regarding `CCN1CCC(CNc2ncc(Cl)cc2C(=O)NCc2ccc3c(N)nccc3c2)CC1` [Example 1.51, N-((1-aminoisoquinolin-6-yl)methyl)-5-chloro-2-(((1-ethylpiperidin-4-yl)methyl)amino)nicotinamide], the IC50 at Human Factor XIIa was below 0.3 µM; against Human FXIa, above 40 µM.

On to `Nc1nccc2cc(CNC(=O)c3cc(Cl)cnc3NCC34CCN(CC3)CC4)ccc12` [Example 1.52], for which the IC50 at Human Factor XIIa is 0.3 to 1 µM; on Human FXIa, above 40 µM.

In the case of `Nc1nccc2cc(CNC(=O)c3cc(Cl)cnc3NCC3CCN(C4CCCC4)CC3)ccc12` [Example 1.53], the IC50 is 0.3 to 1 µM on Human Factor XIIa and above 40 µM at Human FXIa.

For `COCCN1CCC(CNc2ncc(Cl)cc2C(=O)NCc2ccc3c(N)nccc3c2)CC1` [Example 1.54, N-((1-aminoisoquinolin-6-yl)methyl)-5-chloro-2-(((1-(2-methoxyethyl)piperidin-4-yl)methyl)amino)nicotinamide], the concentration for half-maximal inhibition (IC50) was 0.3 to 1 µM at Human Factor XIIa and above 40 µM at Human FXIa.

Turning to `CC(C)CN1CCC(CNc2ncc(Cl)cc2C(=O)NCc2ccc3c(N)nccc3c2)CC1` [Example 1.55], the IC50 on Human Factor XIIa was 0.3 to 1 µM; at Human FXIa it was above 40 µM.

Turning to `Nc1nccc2cc(CNC(=O)c3cc(Cl)cnc3NCC3CCN(CC4CC4)CC3)ccc12` [Example 1.56], the 50% inhibitory concentration (IC50) on Human Factor XIIa is 0.3 to 1 µM; against Human FXIa it was above 40 µM.

With `Nc1nccc2cc(CNC(=O)c3cc(Cl)cnc3NCC3CCN(CC(F)(F)F)CC3)ccc12` [Example 1.57], the IC50 on Human Factor XIIa was 3 to 10 µM; at Human FXIa, above 40 µM.

`Nc1nccc2cc(CNC(=O)c3cc(Cl)cnc3NCC3CCN(C4CCOCC4)CC3)ccc12` [Example 1.58]: the IC50 on Human Factor XIIa was 1 to 3 µM; on Human FXIa, above 40 µM.

Regarding `Nc1nccc2cc(CNC(=O)c3cc(Cl)cnc3NCC3CCn4ccnc4C3)ccc12` (stereo not shown) [Example 1.59, N-((1-aminoisoquinolin-6-yl)methyl)-5-chloro-2-(((5,6,7,8-tetrahydroimidazo[1,2-a]pyridin-7-yl)methyl)amino)nicotinamide], the IC50 on Human Factor XIIa is 0.3 to 1 µM; against Human FXIa, above 40 µM.

As to `CN1CCC(Nc2ncc(Cl)cc2C(=O)NCc2ccc3c(N)nccc3c2)CC1` [Example 1.60], the IC50 on Human Factor XIIa is 1 to 3 µM; on Human FXIa, above 40 µM.

Turning to `CC(=O)N1CCC(CNc2ncc(Cl)cc2C(=O)NCc2ccc3c(N)nccc3c2)CC1` [Example 1.61], the IC50 on Human Factor XIIa is 3 to 10 µM; against Human FXIa, above 40 µM.

For `CS(=O)(=O)N1CCC(CNc2ncc(Cl)cc2C(=O)NCc2ccc3c(N)nccc3c2)CC1` [Example 1.62], the concentration for half-maximal inhibition (IC50) on Human Factor XIIa was 3 to 10 µM; against Human FXIa, above 40 µM.

As for `Nc1nccc2cc(CNC(=O)c3cc(Cl)cnc3NCC3CCN(Cc4cccnc4)CC3)ccc12` [Example 1.63, N-[(1-amino-6-isoquinolyl)methyl]-5-chloro-2-[[1-(3-pyridylmethyl)-4-piperidyl]methylamino]pyridine-3-carboxamide], the IC50 was 0.3 to 1 µM on Human Factor XIIa and above 40 µM against Human FXIa.

Consider `CC(C)N1CCCC(CNc2ncc(Cl)cc2C(=O)NCc2ccc3c(N)nccc3c2)C1` (stereo not shown) [Example 1.64, N-[(1-amino-6-isoquinolyl)methyl]5-chloro-2-[(1-isopropyl-3-piperidyl)methylamino]pyridine-3-carboxamide], for which the IC50 is 0.3 to 1 µM at Human Factor XIIa and above 40 µM against Human FXIa.

`Nc1nccc2cc(CNC(=O)c3cc(Cl)cnc3NCC3CCN(Cc4cscn4)CC3)ccc12` [Example 1.65]: the IC50 is 3 to 10 µM at Human Factor XIIa and above 40 µM at Human FXIa.

`Nc1nccc2cc(CNC(=O)c3cc(Cl)cnc3NCC3CCN(Cc4nccs4)CC3)ccc12` [Example 1.66]: the IC50 is 3 to 10 µM at Human Factor XIIa and above 40 µM at Human FXIa.

On to `Cn1nccc1CN1CCC(CNc2ncc(Cl)cc2C(=O)NCc2ccc3c(N)nccc3c2)CC1` [Example 1.67], for which the IC50 on Human Factor XIIa was 1 to 3 µM; on Human FXIa it was above 40 µM.

Regarding `Cn1cc(CN2CCC(CNc3ncc(Cl)cc3C(=O)NCc3ccc4c(N)nccc4c3)CC2)cn1` [Example 1.68], the IC50 is 0.3 to 1 µM on Human Factor XIIa and above 40 µM against Human FXIa.

Take `CC(C)N1CCCC(C(=O)Nc2ncc(Cl)cc2C(=O)NCc2ccc3c(N)nccc3c2)C1` (stereo not shown) [Example 1.69]: the IC50 was 3 to 10 µM on Human Factor XIIa and above 40 µM against Human FXIa.

In the case of `Nc1nccc2cc(CNC(=O)c3cc(Cl)cnc3NC[C@@H]3CCC(=O)N3)ccc12` [Example 1.70], the IC50 at Human Factor XIIa is 10 to 40 µM; on Human FXIa, above 40 µM.

Regarding `CC(Nc1ncc(Cl)cc1C(=O)NCc1ccc2c(N)nccc2c1)C1CCN(C)CC1` (stereo not shown) [Example 1.71], the figures for the IC50 at Human Factor XIIa and on Human FXIa were 0.3 to 1 µM and above 40 µM, respectively.

On to `Nc1nccc2cc(CNC(=O)c3cc(Cl)cnc3NC[C@H]3CCC(=O)N3)ccc12` [Example 1.72, R—N-[(1-aminoisoquinoline-6-yl)methyl)-5-chloro-2-(((5-oxopyrrolidin-2-yl)methyl)amino)nicotinamide], for which the figures for the IC50 on Human Factor XIIa and against Human FXIa were 10 to 40 µM and 3.16 µM, respectively.

For the molecule `CN1CCC(CNc2ncccc2C(=O)NCc2ccc3c(N)nccc3c2)CC1` [Example 4.01, N-((1-aminoisoquinolin-6-yl)methyl)-2-(((1-methylpiperidin-4-yl)methyl)amino)nicotinamide], the IC50 at Human Factor XIIa was 1 to 3 µM; against Human FXIa, above 40 µM.

Take `Cc1cnc(NCC2CCN(C)CC2)c(C(=O)NCc2ccc3c(N)nccc3c2)c1` [Example 4.02]: the values for the IC50 on Human Factor XIIa and at Human FXIa were 0.3 to 1 µM and above 40 µM, respectively.

As to `CN1CCC(CNc2nccnc2C(=O)NCc2ccc3c(N)nccc3c2)CC1` [Example 4.03, N-((1-aminoisoquinolin-6-yl)methyl)-3-(((1-methylpiperidin-4-yl)methyl)amino)pyrazine-2-carboxamide], the IC50 is 0.3 to 1 µM at Human Factor XIIa and above 40 µM against Human FXIa.

With `CN1CCC(CNc2cncc(C(=O)NCc3ccc4c(N)nccc4c3)n2)CC1` [Example 4.04], the IC50 at Human Factor XIIa is 1 to 3 µM; on Human FXIa it was above 40 µM.

For the molecule `CN1CCC(CNc2cnc(C(=O)NCc3ccc4c(N)nccc4c3)cn2)CC1` [Example 4.05], the IC50 is 3 to 10 µM on Human Factor XIIa and above 40 µM against Human FXIa.

As to `COc1ccc(C(=O)NCc2ccc3c(N)nccc3c2)c(NCC2CCN(C)CC2)n1` [Example 4.06], the values for the IC50 at Human Factor XIIa and on Human FXIa were 1 to 3 µM and above 40 µM, respectively.

For the molecule `CN1CCC(CNc2nc(Cl)ccc2C(=O)NCc2ccc3c(N)nccc3c2)CC1` [Example 4.07], the IC50 on Human Factor XIIa is 0.3 to 1 µM; against Human FXIa, 23.6 µM.

Regarding `CN1CCC(CNc2nccc(Cl)c2C(=O)NCc2ccc3c(N)nccc3c2)CC1` [Example 4.08], the IC50 is 10 to 40 µM at Human Factor XIIa and above 40 µM against Human FXIa.

For the molecule `CN1CCC(CNc2ncc(Br)cc2C(=O)NCc2ccc3c(N)nccc3c2)CC1` [Example 4.09], the IC50 on Human Factor XIIa was below 0.3 µM; at Human FXIa, above 40 µM.

Consider `CN1CCC(CNc2ncc(C3CC3)cc2C(=O)NCc2ccc3c(N)nccc3c2)CC1` [Example 4.10], for which the IC50 at Human Factor XIIa was 0.3 to 1 µM; against Human FXIa it was above 40 µM.

In the case of `CN1CCC(CNc2ncc(-c3cccnc3)cc2C(=O)NCc2ccc3c(N)nccc3c2)CC1` [Example 4.11, N-((1-aminoisoquinolin-6-yl)methyl)-6-(((1-methylpiperidin-4-yl)methyl)amino)-[3,3′-bipyridine]-5-carboxamide], the IC50 was 0.3 to 1 µM on Human Factor XIIa and above 40 µM against Human FXIa.

Consider `COc1cnc(NCC2CCN(C)CC2)c(C(=O)NCc2ccc3c(N)nccc3c2)c1` [Example 4.12], for which the values for the half-inhibitory concentration (IC50) at Human Factor XIIa and at Human FXIa were 1 to 3 µM and above 40 µM, respectively.

Consider `Cc1ccc(C(=O)NCc2ccc3c(N)nccc3c2)c(NCC2CCN(C)CC2)n1` [Example 4.13], for which the IC50 on Human Factor XIIa is 0.3 to 1 µM; against Human FXIa, above 40 µM.
